Measurements published in patent US11071769B2, “Lipo-glycopeptide cleavable derivatives and uses thereof” (Insmed Incorporated, priority 2017, dated 2021).
≈ marks a conversion by molar mass, not a printed value.

What was measured:
[1] = tested on: MRSA isolate ATCC BAA-1556; assay: MIC, CLSI-guided broth susceptibility testing, MRSA 1556; type: cell-based, Staphylococcus aureus; conditions: for MIC Values, MRSA 1556: MRSA isolate ATCC BAA-1556; for MIC: Staphylococcus aureus, read-out: MIC Values, MRSA 1556
Procedure: (§1) Compounds of the invention were evaluated for their ability to inhibit bacterial growth in two MRS A strains—MRS A 1556 and MRS A 29213. Table 2 provides MIC concentrations for metabolites of the ester and amide compounds, RV80 (metabolite of RV65 ester) and RV82 (metabolite of RV62 amide). MIC values for vancomycin and telavancin are also provided.
(§2) MIC Testing: Glycopeptide compounds were dissolved in 100% DMSO. In vitro activities were determined using CLSI-guided broth susceptibility testing to measure drug minimum inhibitory concentrations (MICs) of the compounds against the quality control strain ATCC 29213 (MSSA) and the MRS A isolate ATCC BAA-1556.

[2] = tested on: quality control strain ATCC 29213 (MSSA); assay: MIC, CLSI-guided broth susceptibility testing, MSSA 29213; type: cell-based, Staphylococcus aureus; conditions: for MIC Values, MSSA 29213: ATCC 29213 (MSSA); for MIC: Staphylococcus aureus, read-out: MIC Values, MSSA 29213
Procedure: as §1, §2

[3] = Metabolism (hydrolysis) in rat plasma; type: in vitro ADME; conditions: 37° C.; for degradant detected in plasma: 50 μg/mL
Procedure: RV62 and RV65 were dissolved in 100% DMSO. Stock solutions were diluted using rat plasma to contain less than 1% organic solvent with a final drug concentration of 50 μg/mL. Samples were briefly vortexed and then incubated in a shaker set to 37° C. and 300 rpm. Aliquots were removed at specified time points and store at −80° C. until extraction and analysis. Samples were extracted using a solution of 10% TCA and analyzed using LCMS.

[4] = Degradation (hydrolysis) in Tris buffer by HPLC; type: physicochemical; conditions: 1 mM Tris buffer pH 6.99, 40° C., 72 h
Procedure: RV62 and RV65 degradation was determined according to the following procedures.
Compounds were dissolved and diluted with 1 mM Tris buffer (pH 6.99) to achieve a concentration of 54 μg/mL (stock solution). 0.5 mL of stock solution was further diluted with acetonitrile to a total volume of 10 mL. The stock solution was incubated at 40° C., with samples withdrawn at 3, 6, 24, and 72 h and tested by HPLC.
HPLC method: Samples were injected onto a 100×2.1 mm Waters Cortecs HILIC with a particle size of 1.6 μm. The mobile phase consisted of water (0.1% formic acid) and acetonitrile (0.1% formic acid). The analytic method utilized a gradient from 10% water (0.1% formic acid)/90% acetonitrile (0.1% formic acid) to 70% water (0.1% formic acid)/30% acetonitrile (0.1% formic acid). The HPLC instrument was equipped with a UV detector (280 nm). Compounds were identified by mass.

| Structure (SMILES) | MIC Values, MRSA 1556 [1] | MIC Values, MSSA 29213 [2] | other results |
| --- | --- | --- | --- |
| CCCCCCCCCC(=O)OCCNC1(C)CC(OC2C(Oc3c4cc5cc3Oc3ccc(cc3Cl)C(O)C3NC(=O)C(NC(=O)C5NC(=O)C(CC(N)=O)NC(=O)C(NC(=O)C(CC(C)C)NC)C(O)c5ccc(c(Cl)c5)O4)c4ccc(O)c(c4)-c4c(O)cc(O)cc4C(C(=O)O)NC3=O)OC(CO)C(O)C2O)OC(C)C1O (centres unmarked) [RV54] | 0.167 µg/mL (≈ 0.101 µM) | 0.146 µg/mL (≈ 0.0886 µM) | – |
| CCCCCCCCCC(=O)NCCNC1(C)CC(OC2C(Oc3c4cc5cc3Oc3ccc(cc3Cl)C(O)C3NC(=O)C(NC(=O)C5NC(=O)C(CC(N)=O)NC(=O)C(NC(=O)C(CC(C)C)NC)C(O)c5ccc(c(Cl)c5)O4)c4ccc(O)c(c4)-c4c(O)cc(O)cc4C(C(=O)O)NC3=O)OC(CO)C(O)C2O)OC(C)C1O (centres unmarked) [RV56] | 0.063 µg/mL (≈ 0.0383 µM) | 0.063 µg/mL (≈ 0.0383 µM) | – |
| CCCCCCCCCCCC(=O)NCCNC1(C)CC(OC2C(Oc3c4cc5cc3Oc3ccc(cc3Cl)C(O)C3NC(=O)C(NC(=O)C5NC(=O)C(CC(N)=O)NC(=O)C(NC(=O)C(CC(C)C)NC)C(O)c5ccc(c(Cl)c5)O4)c4ccc(O)c(c4)-c4c(O)cc(O)cc4C(C(=O)O)NC3=O)OC(CO)C(O)C2O)OC(C)C1O (centres unmarked) [RV62] | 0.023 µg/mL (≈ 0.0137 µM) | 0.023 µg/mL (≈ 0.0137 µM) | degradant detected in plasma ([3]; 24 h incubation): 6%; fold more efficacious than RV65 (MIC) ([1]; compared with RV65, the ester with the lowest measured MIC, Table 1, both strains): about 3 × |
| CCCCCCCCCCCC(=O)OCCNC1(C)CC(OC2C(Oc3c4cc5cc3Oc3ccc(cc3Cl)C(O)C3NC(=O)C(NC(=O)C5NC(=O)C(CC(N)=O)NC(=O)C(NC(=O)C(CC(C)C)NC)C(O)c5ccc(c(Cl)c5)O4)c4ccc(O)c(c4)-c4c(O)cc(O)cc4C(C(=O)O)NC3=O)OC(CO)C(O)C2O)OC(C)C1O (centres unmarked) [RV65] | 0.094 µg/mL (≈ 0.0561 µM) | 0.063 µg/mL (≈ 0.0376 µM) | degradant detected in plasma ([3]; 6 h incubation): ~90%; metabolism in plasma compared to RV62 ([3]; over 24 h): metabolized faster; peak area for the cleaved glycopeptide, of the total [4]: about 42% |
| CNC(CC(C)C)C(=O)NC1C(=O)NC(CC(N)=O)C(=O)NC2C(=O)NC3C(=O)NC(C(=O)NC(C(=O)O)c4cc(O)cc(O)c4-c4cc3ccc4O)C(O)c3ccc(c(Cl)c3)Oc3cc2cc(c3OC2OC(CO)C(O)C(O)C2OC2CC(C)(NCCO)C(O)C(C)O2)Oc2ccc(cc2Cl)C1O (centres unmarked) [RV80] | 1 µg/mL (≈ 0.67 µM) | 1 µg/mL (≈ 0.67 µM) | – |
| CN[C@H](CC(C)C)C(=O)N[C@H]1C(=O)N[C@@H](CC(N)=O)C(=O)N[C@H]2C(=O)N[C@H]3C(=O)N[C@H](C(=O)N[C@@H](C(=O)O)c4cc(O)cc(O)c4-c4cc3ccc4O)[C@H](O)c3ccc(c(Cl)c3)Oc3cc2cc(c3O[C@@H]2O[C@H](CO)[C@@H](O)[C@H](O)[C@H]2O[C@H]2C[C@](C)(NCCN)[C@H](O)[C@H](C)O2)Oc2ccc(cc2Cl)[C@H]1O [RV82] | – | – | MIC [1]: 3 µg/mL (≈ 2.01 µM); MIC [2]: 3 µg/mL (≈ 2.01 µM) |
| CCCCCCCCCCCCCCCC(=O)OCCNC1(C)CC(OC2C(Oc3c4cc5cc3Oc3ccc(cc3Cl)C(O)C3NC(=O)C(NC(=O)C5NC(=O)C(CC(N)=O)NC(=O)C(NC(=O)C(CC(C)C)NC)C(O)c5ccc(c(Cl)c5)O4)c4ccc(O)c(c4)-c4c(O)cc(O)cc4C(C(=O)O)NC3=O)OC(CO)C(O)C2O)OC(C)C1O (centres unmarked) [RV89] | 1.000 µg/mL (≈ 0.577 µM) | 0.500 µg/mL (≈ 0.289 µM) | – |
| CCCCCCCC(=O)OCCNC1(C)CC(OC2C(Oc3c4cc5cc3Oc3ccc(cc3Cl)C(O)C3NC(=O)C(NC(=O)C5NC(=O)C(CC(N)=O)NC(=O)C(NC(=O)C(CC(C)C)NC)C(O)c5ccc(c(Cl)c5)O4)c4ccc(O)c(c4)-c4c(O)cc(O)cc4C(C(=O)O)NC3=O)OC(CO)C(O)C2O)OC(C)C1O (centres unmarked) [RV90] | 0.250 µg/mL (≈ 0.154 µM) | 0.250 µg/mL (≈ 0.154 µM) | – |
| CCCCCCCCCCCCCCCC(=O)NCCNC1(C)CC(OC2C(Oc3c4cc5cc3Oc3ccc(cc3Cl)C(O)C3NC(=O)C(NC(=O)C5NC(=O)C(CC(N)=O)NC(=O)C(NC(=O)C(CC(C)C)NC)C(O)c5ccc(c(Cl)c5)O4)c4ccc(O)c(c4)-c4c(O)cc(O)cc4C(C(=O)O)NC3=O)OC(CO)C(O)C2O)OC(C)C1O (centres unmarked) [RV91] | 0.250 µg/mL (≈ 0.144 µM) | 0.188 µg/mL (≈ 0.109 µM) | – |
| CCCCCCCC(=O)NCCNC1(C)CC(OC2C(Oc3c4cc5cc3Oc3ccc(cc3Cl)C(O)C3NC(=O)C(NC(=O)C5NC(=O)C(CC(N)=O)NC(=O)C(NC(=O)C(CC(C)C)NC)C(O)c5ccc(c(Cl)c5)O4)c4ccc(O)c(c4)-c4c(O)cc(O)cc4C(C(=O)O)NC3=O)OC(CO)C(O)C2O)OC(C)C1O (centres unmarked) [RV93] | 0.125 µg/mL (≈ 0.0772 µM) | 0.125 µg/mL (≈ 0.0772 µM) | – |
| CCCCCCCCCCCCNC(=O)CNC1(C)CC(OC2C(Oc3c4cc5cc3Oc3ccc(cc3Cl)C(O)C3NC(=O)C(NC(=O)C5NC(=O)C(CC(N)=O)NC(=O)C(NC(=O)C(CC(C)C)NC)C(O)c5ccc(c(Cl)c5)O4)c4ccc(O)c(c4)-c4c(O)cc(O)cc4C(C(=O)O)NC3=O)OC(CO)C(O)C2O)OC(C)C1O (centres unmarked) [RV95] | 0.031 µg/mL (≈ 0.0185 µM) | 0.031 µg/mL (≈ 0.0185 µM) | – |
| CCCCCCCCCCNCCN[C@@]1(C)C[C@H](O[C@H]2[C@H](Oc3c4cc5cc3Oc3ccc(cc3Cl)[C@@H](O)[C@@H](NC(=O)[C@@H](CC(C)C)NC)C(=O)N[C@@H](CC(N)=O)C(=O)N[C@H]5C(=O)N[C@H]3C(=O)N[C@H](C(=O)N[C@H](C(=O)O)c5cc(O)c(CNCP(=O)(O)O)c(O)c5-c5cc3ccc5O)[C@H](O)c3ccc(c(Cl)c3)O4)O[C@H](CO)[C@@H](O)[C@@H]2O)O[C@@H](C)[C@H]1O [Telavancin, telavancin, reference compound] | – | – | MIC [1]: 0.063 µg/mL (≈ 0.0359 µM); MIC [2]: 0.063 µg/mL (≈ 0.0359 µM) |
